Molecules are shown by their SMILES.

Series [1] is described as follows: Competitive slurries of polymorphs (XRPD of product). It is filed as physicochemical. As for the experimental part: Form IV (10 mg) was placed in water (1 ml) with 10 mg of Form I and Form II and stirred overnight at ambient temperature. A second slurry was set up to also include a further polymorph. Mixtures were filtered under suction and dried in a vacuum oven (45° C.).
The same experimental procedure was applied to a slurry involving Forms I, II, III and IV. The initial test was performed in water and a second was carried out in ethyl acetate. […] This work supports previous conclusions that Form II is the dominant form.

The nature of series [2]: Solubility in pure water of the polymorphs. The note with it: 23° C.
Procedure: The solubility in pure water of samples of the different polymorphs was assessed at 23° C.

As to `Cc1occc(=O)c1[O-].Cc1occc(=O)c1[O-].Cc1occc(=O)c1[O-].[Fe+3]` [Form II, ferric maltol], the “Form obtained from competitive slurry (XRPD)” value in series [1] (Form IV with Form I and Form II, water, stirred overnight at ambient temperature) is reported as “generated”; in series [1] (slurry of Forms I, II, III and IV, in water and in ethyl acetate), “isolated”. Further, the “Relative stability of forms concluded from competitive slurries” value in series [1] (conclusion from competitive slurries) was “dominant form”. For the same compound, the Solubility – broadly, the dissolved amount per volume that the medium holds – in series [2] amounted to 5900 µg/mL.

The values are drawn from patent publication US9802973B2, “Crystalline forms of ferric maltol” (SHIELD TX (UK) LTD., priority 2014, dated 2017).
